Measured values from patent US20230271954A1 (Gossamer Bio Services, Inc., priority 2020, published 2023).

Key:
[1] = biological target: DGKα (Homo sapiens, UniProt P23743); assay: DGKα biochemical assay (ADP-Glo); conditions: read-out: DGK α IC50
Description: (§1) Compounds of the present invention were prepared into 10 mM DMSO solution and 10 nL of stock was transferred into 384 plates (Optiplate 384 plate) using Echo550. DMSO was used as high control, and ATP substrate buffer was used as a low control. A 1× enzyme assay buffer was prepared (Hepes, pH 7.0 25 mM, BSA 0.05%, Triton-X100 0.002%, CaCl2) 1 μM, MgCl2 10 mM, DTT 2 mM). […] OAG (1-oleoyl-2-acetyl-sn-glycerol, 25 mg/ml, Avanti 8001000) and PS (10 mg/ml, Avanti 840032P) were mixed at the ratio of 1:2. A 1× substrate solution was prepared with 1× assay buffer by 100-fold dilution. The substrate solution was sonicated on ice for 1 min. The pure ATP was added to the substrate solution (DGKα:400 μM). 5 μL of the enzyme solution were added to the 384 well plate, and the plate was spun for 1 min at 1000 rpm and incubated for 30 mins at RT. 5 μL of 1× substrate solution were added to the 384 well plate, the plate was spun and then incubated for 45 mins at RT. 10 μL ADP-Glo […] was added to stop the assay. After 60 mins at RT, 20 μL ADP-Glo Detection buffer was added as the final step. Plate was read after 45 min incubation at RT.
(§2) Data analysis was performed by calculating the […] using following the formula:
(§3) [formula] • High control (Hc): DMSO/DGKα(DGKζ)/Substrate/ATP/ADP-Glo • Low Control (Lc): ATP/ADP-Glo

[2] = biological target: T1, DGKζ (Homo sapiens, UniProt Q13574); assay: DGKζ biochemical assay (ADP-Glo); conditions: read-out: DGK ζ IC50
T1 construct: purchased Carna 12-110
T1 sequence (Q13574 1-929 isoform Q13574-4): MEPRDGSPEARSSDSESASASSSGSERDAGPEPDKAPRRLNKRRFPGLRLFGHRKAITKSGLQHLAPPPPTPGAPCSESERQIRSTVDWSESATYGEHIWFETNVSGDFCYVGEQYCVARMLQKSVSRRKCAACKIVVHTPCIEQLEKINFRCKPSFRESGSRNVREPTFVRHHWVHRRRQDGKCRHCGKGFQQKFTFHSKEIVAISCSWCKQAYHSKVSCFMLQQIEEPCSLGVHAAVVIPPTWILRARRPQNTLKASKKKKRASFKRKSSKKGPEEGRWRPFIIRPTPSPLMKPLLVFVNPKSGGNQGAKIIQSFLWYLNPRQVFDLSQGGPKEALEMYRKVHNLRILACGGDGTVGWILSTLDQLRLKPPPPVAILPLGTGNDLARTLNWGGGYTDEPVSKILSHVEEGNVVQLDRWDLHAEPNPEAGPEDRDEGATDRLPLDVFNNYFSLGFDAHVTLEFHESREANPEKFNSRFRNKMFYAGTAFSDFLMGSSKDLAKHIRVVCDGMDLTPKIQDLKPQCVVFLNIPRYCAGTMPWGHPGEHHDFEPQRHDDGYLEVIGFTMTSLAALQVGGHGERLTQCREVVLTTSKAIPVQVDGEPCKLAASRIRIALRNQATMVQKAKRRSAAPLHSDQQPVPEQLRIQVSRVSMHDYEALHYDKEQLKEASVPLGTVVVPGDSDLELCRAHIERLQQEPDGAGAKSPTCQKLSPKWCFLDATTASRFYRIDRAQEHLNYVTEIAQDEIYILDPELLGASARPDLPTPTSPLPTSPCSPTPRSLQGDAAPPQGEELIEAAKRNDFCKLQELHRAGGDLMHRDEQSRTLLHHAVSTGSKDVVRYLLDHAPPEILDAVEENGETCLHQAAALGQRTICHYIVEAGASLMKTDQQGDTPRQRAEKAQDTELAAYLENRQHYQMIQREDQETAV
Description: as §1, §2, §3

DGKα, sequence (P23743 whole entry): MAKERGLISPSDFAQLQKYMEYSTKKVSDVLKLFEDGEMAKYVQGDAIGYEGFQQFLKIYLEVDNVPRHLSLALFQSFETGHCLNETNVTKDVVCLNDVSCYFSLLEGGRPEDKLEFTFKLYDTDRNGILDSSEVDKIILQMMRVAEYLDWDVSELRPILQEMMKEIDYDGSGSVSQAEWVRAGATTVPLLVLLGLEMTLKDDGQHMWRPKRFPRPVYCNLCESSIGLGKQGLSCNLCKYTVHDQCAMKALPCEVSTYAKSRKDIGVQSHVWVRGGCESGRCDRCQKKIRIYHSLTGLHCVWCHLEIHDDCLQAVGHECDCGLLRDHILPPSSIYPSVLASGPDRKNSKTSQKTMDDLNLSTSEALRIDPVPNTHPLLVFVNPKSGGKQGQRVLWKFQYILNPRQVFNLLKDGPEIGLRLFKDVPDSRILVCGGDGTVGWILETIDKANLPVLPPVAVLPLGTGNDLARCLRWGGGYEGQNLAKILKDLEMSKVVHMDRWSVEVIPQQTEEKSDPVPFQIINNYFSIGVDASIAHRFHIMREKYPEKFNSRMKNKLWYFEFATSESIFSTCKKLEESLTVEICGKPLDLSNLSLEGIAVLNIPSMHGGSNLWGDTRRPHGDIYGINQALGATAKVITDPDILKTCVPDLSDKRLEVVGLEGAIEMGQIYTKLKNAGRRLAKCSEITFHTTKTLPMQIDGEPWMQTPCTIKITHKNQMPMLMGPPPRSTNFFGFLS

| SMILES | IC50 [1] [nM] | IC50 [2] [nM] |
| --- | --- | --- |
| COc1cc(N(C2CC2)[C@H]2CC[C@@H](N(C)c3cc(=O)n(C)c4ccc(C#N)nc34)CC2)ccc1F [Example 83] | 100 to 1000 | 100 to 1000 |
| COc1cc(N(CC2CC2)[C@H]2CC[C@@H](N(C)c3c(C#N)c(=O)n(C)c4ccc(Cl)nc34)CC2)cc(F)c1F [Example 98] | 100 to 1000 | 100 to 1000 |
| COc1cc(F)ccc1N(C1CCC1)[C@H]1CC[C@@H](N(C)c2c(C#N)c(=O)n(C)c3ccc(Cl)nc23)CC1 [Example 17, cis-6-chloro-4-((4-(cyclobutyl(4-fluoro-2-methoxyphenyl)amino)cyclohexyl)(methyl)amino)-1-methyl-2-oxo-1,2-dihydro-1,5-naphthyridine-3-carbonitrile] | ≥ 1000 | ≥ 1000 |
| Cc1nc(F)ccc1N(CC1CCOC1)[C@H]1CC[C@H](N(C)c2c(C#N)c(=O)n(C)c3ccc(C#N)nc23)CC1 (stereo partly drawn) [Example 130, trans-8-((-4-((6-fluoro-2-methylpyridin-3-yl) ((tetrahydrofuran-3-yl)methyl)amino)cyclohexyl) (methyl)amino)-5-methyl-6-oxo-5,6-dihydro-1,5-naphthyridine-2,7-dicarbonitrile] | 100 to 1000 | 100 to 1000 |
| Cn1c(=O)cc(N(C)[C@H]2CC[C@H](N(c3ccc(F)cc3O)C3CC3)CC2)c2nc(C#N)ccc21 [Example 3X, trans-8-((4-(cyclopropyl(4-fluoro-2-hydroxyphenyl)amino)cyclohexyl)(methyl)amino)-5-methyl-6-oxo-5,6-dihydro-1,5-naphthyridine-2-carbonitrile] | 100 to 1000 | ≥ 1000 |
| Cc1ccc(N(CC2CC2)[C@H]2CC[C@H](N(C)c3c(C#N)c(=O)n(C)c4ccc(C#N)nc34)CC2)cc1 [Example 128, trans-8-((-4-((cyclopropylmethyl)(p-tolyl)amino)cyclohexyl)(methyl)amino)-5-methyl-6-oxo-5,6-dihydro-1,5-naphthyridine-2,7-dicarbonitrile] | 100 to 1000 | 100 to 1000 |
| COc1cc(N(CC2CC2)[C@H]2CC[C@H](N(C)c3c(C#N)c(=O)n(C)c4ccc(C#N)nc34)CC2)cc(OC)c1F [Example 115, trans-8-((-4-((cyclopropylmethyl)(4-fluoro-3,5-dimethoxyphenyl)amino)cyclohexyl)(methyl)amino)-5-methyl-6-oxo-5,6-dihydro-1,5-naphthyridine-2,7-dicarbonitrile] | 100 to 1000 | 100 to 1000 |
| COc1cc(F)ccc1N(C)[C@H]1CC[C@H](N(C)c2c(C#N)c(=O)n(C)c3ccc(C#N)nc23)CC1 [Example 46, trans-8-((4-((4-fluoro-2-methoxyphenyl)(methyl)amino)cyclohexyl)(methyl)amino)-5-methyl-6-oxo-5,6-dihydro-1,5-naphthyridine-2,7-dicarbonitrile] | 100 to 1000 | 10 to 100 |
| Cn1c(=O)c(C#N)c(N(C)[C@H]2CC[C@@H](N(c3ccc(F)cc3F)C3CC3)CC2)c2nc(Cl)ccc21 [Example 5, cis-6-chloro-4-((-4-(cyclopropyl(2,4-difluorophenyl)amino)cyclohexyl)(methyl)amino)-1-methyl-2-oxo-1,2-dihydro-1,5-naphthyridine-3-carbonitrile] | 100 to 1000 | ≥ 1000 |
| COc1cccc(N(CC2CC2)[C@H]2CC[C@@H](N(C)c3cc(=O)n(C)c4ccc(C#N)nc34)CC2)c1 [Example 12, cis-8-((4-((cyclopropylmethyl)(3-methoxyphenyl)amino)cyclohexyl)(methyl)amino)-5-methyl-6-oxo-5,6-dihydro-1,5-naphthyridine-2-carbonitrile] | 100 to 1000 | ≥ 1000 |
| Cn1c(=O)c(C#N)c(N(C)[C@H]2CC[C@H](N(CC3CCC3)c3ccc(CCN4CCOCC4)cc3)CC2)c2nc(C#N)ccc21 [Example 172, trans-8-((4-((cyclobutylmethyl)(4-(2-morpholinoethyl)phenyl)amino)cyclohexyl)(methyl)amino)-5-methyl-6-oxo-5,6-dihydro-1,5-naphthyridine-2,7-dicarbonitrile] | ≥ 1000 | ≥ 1000 |

Results, then the compound that gave them:

| IC50 [1] [nM] | IC50 [2] [nM] | SMILES |
| --- | --- | --- |
| 10 to 100 | ≥ 1000 | Cn1c(=O)cc(N(C)[C@H]2CC[C@@H](N(CC3CCS(=O)(=O)CC3)c3ccc(F)cc3)CC2)c2nc(C#N)ccc21 [Example 211, cis-8-((4-(((1,1-dioxidotetrahydro-2H-thiopyran-4-yl)methyl)(4-fluorophenyl)amino)cyclohexyl)(methyl)amino)-5-methyl-6-oxo-5,6-dihydro-1,5-naphthyridine-2-carbonitrile] |
| < 10 | ≥ 1000 | Cn1c(=O)c(C#N)c(N[C@H]2CC[C@H](N(CC3CC3)c3ccccc3)CC2)c2nc(Cl)ccc21 [Example 3B, trans-6-Chloro-4-((4-((cyclopropylmethyl)(phenyl)amino)cyclohexyl)amino)-1-methyl-2-oxo-1,2-dihydro-1,5-naphthyridine-3-carbonitrile] |
| 10 to 100 | ≥ 1000 | CN1C(=O)CN([C@H]2CC[C@H](N(CC3CC3)c3ccccc3)CC2)c2nc(C#N)ccc21 [Example 2A, trans-4-[4-[N-(Cyclopropylmethyl)anilino]cyclohexyl]-1-methyl-2-oxo-3H-pyrido[2,3-b]pyrazine-6-carbonitrile] |
| 100 to 1000 | ≥ 1000 | Cn1c(=O)cc(N(C)[C@H]2CC[C@H](N(CC3CC3)c3ccc(F)cn3)CC2)c2nc(C#N)ccc21 [Example 3AA] |
| 10 to 100 | 100 to 1000 | Cn1c(=O)c(C#N)c(N(C)[C@H]2CC[C@@H](N(CC3CC3)c3cc4c(cn3)OCO4)CC2)c2nc(C#N)ccc21 [Example 213, cis-8-((-4-([1,3]dioxolo[4,5-c]pyridin-6-yl(cyclopropylmethyl)amino)cyclohexyl)(methyl)amino)-5-methyl-6-oxo-5,6-dihydro-1,5-naphthyridine-2,7-dicarbonitrile] |
| 10 to 100 | ≥ 1000 | Cn1c(=O)c(C#N)c(N(C)[C@H]2CC[C@H](N(c3ccc(F)cc3)C3CCC3)CC2)c2nc(Cl)ccc21 [Example 20, trans-6-chloro-4-((4-(cyclobutyl(4-fluorophenyl)amino)cyclohexyl)(methyl)amino)-1-methyl-2-oxo-1,2-dihydro-1,5-naphthyridine-3-carbonitrile] |
| 10 to 100 | 10 to 100 | Cc1cc(F)cc(N(CC2CCC2)[C@H]2CC[C@@H](N(C)c3c(C#N)c(=O)n(C)c4ccc(C#N)nc34)CC2)c1 [Example 113, cis-8-((-4-((cyclobutylmethyl)(3-fluoro-5-methylphenyl)amino)cyclohexyl)(methyl)amino)-5-methyl-6-oxo-5,6-dihydro-1,5-naphthyridine-2,7-dicarbonitrile] |
| 10 to 100 | 100 to 1000 | Cn1c(=O)c(C#N)c(N(C)[C@H]2CC[C@H](N(c3ccc(F)cn3)C3CC3)CC2)c2nc(Cl)ccc21 [Example 3I] |
| 10 to 100 | 100 to 1000 | COc1cccc(N(CC2CC2)[C@H]2CC[C@@H](N(C)c3c(C#N)c(=O)n(C)c4ccc(C#N)nc34)CC2)c1 [Example 28, cis-8-((4-((cyclopropylmethyl)(3-methoxyphenyl)amino)cyclohexyl)(methyl)amino)-5-methyl-6-oxo-5,6-dihydro-1,5-naphthyridine-2,7-dicarbonitrile] |
| < 10 | 10 to 100 | Cc1ccc(N(CC2CCC2)[C@H]2CC[C@@H](N(C)c3c(C#N)c(=O)n(C)c4ccc(C#N)nc34)CC2)cc1 [Example 99] |
| 10 to 100 | ≥ 1000 | Cn1c(=O)c(C#N)c(N(C)[C@H]2CC[C@H](N(c3ccccc3)C3CC3)CC2)c2nc(Cl)ccc21 [Example 3C, trans-6-Chloro-4-((4-(cyclopropyl(phenyl)amino)cyclohexyl)(methyl)amino)-1-methyl-2-oxo-1,2-dihydro-1,5-naphthyridine-3-carbonitrile] |
| 10 to 100 | 10 to 100 | Cn1c(=O)c(C#N)c(N(C)[C@H]2CC[C@@H](N(CC3CCOC3)c3ccc(F)c(OC(F)F)c3)CC2)c2nc(C#N)ccc21 (stereo partly drawn) [Example 158, cis-8-((-4-((3-(difluoromethoxy)-4-fluorophenyl) ((tetrahydrofuran-3-yl)methyl)amino)cyclohexyl) (methyl)amino)-5-methyl-6-oxo-5,6-dihydro-1,5-naphthyridine-2,7-dicarbonitrile] |
| 10 to 100 | 10 to 100 | Cc1ccc(N(CC2CCC2)[C@H]2CC[C@@H](N(C)c3c(C#N)c(=O)n(C)c4ccc(C#N)nc34)CC2)cc1OC(F)F [Example 148, cis-8-((-4-((cyclobutylmethyl)(3-(difluoromethoxy)-4-methylphenyl)amino)cyclohexyl)(methyl)amino)-5-methyl-6-oxo-5,6-dihydro-1,5-naphthyridine-2,7-dicarbonitrile] |
| 10 to 100 | 10 to 100 | Cn1c(=O)cc(N(C)[C@H]2CC[C@@H](N(CC3CCC3)c3ccc4c(c3)OCCO4)CC2)c2nc(C#N)ccc21 [Example 169, cis-8-((4-((cyclobutylmethyl)(2,3-dihydrobenzo[b] [1,4]dioxin-6-yl)amino)cyclohexyl)(methyl)amino)-5-methyl-6-oxo-5,6-dihydro-1,5-naphthyridine-2-carbonitrile] |
